Key:
[1] = molecular target: Tyrosine-protein kinase CSK (Homo sapiens) (UniProt P41240); assay: Selectivity interaction (Kinase panel (Z-LYTE Assay)) EUB0001632a CSK; conditions: at 10 µM
[2] = molecular target: T1, MAP kinase-activated protein kinase 5 (Homo sapiens) (UniProt Q8IW41); assay: Selectivity interaction (KinomeScan (DiscoverX)) EUB0000666a MAPKAPK5; conditions: at 10 µM
T1 sequence (whole entry): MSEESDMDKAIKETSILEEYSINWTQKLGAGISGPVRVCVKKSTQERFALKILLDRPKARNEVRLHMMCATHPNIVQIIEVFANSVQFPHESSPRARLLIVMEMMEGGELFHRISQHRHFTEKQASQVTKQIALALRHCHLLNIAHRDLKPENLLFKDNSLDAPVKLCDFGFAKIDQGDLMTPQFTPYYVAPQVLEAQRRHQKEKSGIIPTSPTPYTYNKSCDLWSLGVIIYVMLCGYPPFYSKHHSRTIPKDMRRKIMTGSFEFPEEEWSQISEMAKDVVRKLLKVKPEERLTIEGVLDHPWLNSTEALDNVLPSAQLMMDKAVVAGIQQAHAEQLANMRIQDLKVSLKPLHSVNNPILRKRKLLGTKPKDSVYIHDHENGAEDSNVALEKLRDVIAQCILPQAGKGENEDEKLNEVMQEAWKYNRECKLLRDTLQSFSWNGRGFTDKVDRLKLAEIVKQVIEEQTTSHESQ

[3] = molecular target: Phosphatidylinositol 4,5-bisphosphate 3-kinase catalytic subunit beta isoform (Homo sapiens) (UniProt P42338); assay: Selectivity interaction (KinomeScan (DiscoverX)) EUB0000607a PIK3CB; conditions: at 10 µM
[4] = molecular target: Ephrin type-A receptor 7 (Homo sapiens) (UniProt Q15375); assay: Selectivity interaction (Upstate Kinase Profiler service (Millipore)) EUB0000056c EPHA7; conditions: at 1 µM
[5] = molecular target: T2, Scaffold protein ILK (Homo sapiens) (UniProt Q13418); assay: Selectivity interaction (ActivX KiNativ screen (kinase selectivity in THP-1 cell lysates)) EUB0000639a ILK; format: subcellular; conditions: lysate, at 0.2 µM
T2 sequence (whole entry): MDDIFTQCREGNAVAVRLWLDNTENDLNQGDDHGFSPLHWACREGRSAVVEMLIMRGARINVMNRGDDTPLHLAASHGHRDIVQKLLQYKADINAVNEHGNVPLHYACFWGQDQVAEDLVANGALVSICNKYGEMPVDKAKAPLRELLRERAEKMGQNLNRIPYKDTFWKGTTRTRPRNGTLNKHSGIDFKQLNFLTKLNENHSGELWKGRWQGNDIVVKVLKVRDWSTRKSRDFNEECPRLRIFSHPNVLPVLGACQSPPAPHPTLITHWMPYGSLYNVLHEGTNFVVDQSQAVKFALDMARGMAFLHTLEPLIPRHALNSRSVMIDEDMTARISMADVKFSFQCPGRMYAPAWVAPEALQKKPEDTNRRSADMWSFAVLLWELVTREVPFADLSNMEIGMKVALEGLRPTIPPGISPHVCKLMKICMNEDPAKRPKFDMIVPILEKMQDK

[6] = molecular target: Serine-protein kinase ATM (Homo sapiens) (UniProt Q13315); assay: Selectivity interaction (ActivX KiNativ screen (kinase selectivity in THP-1 cell lysates)) EUB0000639a ATM; format: subcellular; conditions: lysate
Chain of Serine-protein kinase ATM (Homo sapiens) (Q13315 whole entry): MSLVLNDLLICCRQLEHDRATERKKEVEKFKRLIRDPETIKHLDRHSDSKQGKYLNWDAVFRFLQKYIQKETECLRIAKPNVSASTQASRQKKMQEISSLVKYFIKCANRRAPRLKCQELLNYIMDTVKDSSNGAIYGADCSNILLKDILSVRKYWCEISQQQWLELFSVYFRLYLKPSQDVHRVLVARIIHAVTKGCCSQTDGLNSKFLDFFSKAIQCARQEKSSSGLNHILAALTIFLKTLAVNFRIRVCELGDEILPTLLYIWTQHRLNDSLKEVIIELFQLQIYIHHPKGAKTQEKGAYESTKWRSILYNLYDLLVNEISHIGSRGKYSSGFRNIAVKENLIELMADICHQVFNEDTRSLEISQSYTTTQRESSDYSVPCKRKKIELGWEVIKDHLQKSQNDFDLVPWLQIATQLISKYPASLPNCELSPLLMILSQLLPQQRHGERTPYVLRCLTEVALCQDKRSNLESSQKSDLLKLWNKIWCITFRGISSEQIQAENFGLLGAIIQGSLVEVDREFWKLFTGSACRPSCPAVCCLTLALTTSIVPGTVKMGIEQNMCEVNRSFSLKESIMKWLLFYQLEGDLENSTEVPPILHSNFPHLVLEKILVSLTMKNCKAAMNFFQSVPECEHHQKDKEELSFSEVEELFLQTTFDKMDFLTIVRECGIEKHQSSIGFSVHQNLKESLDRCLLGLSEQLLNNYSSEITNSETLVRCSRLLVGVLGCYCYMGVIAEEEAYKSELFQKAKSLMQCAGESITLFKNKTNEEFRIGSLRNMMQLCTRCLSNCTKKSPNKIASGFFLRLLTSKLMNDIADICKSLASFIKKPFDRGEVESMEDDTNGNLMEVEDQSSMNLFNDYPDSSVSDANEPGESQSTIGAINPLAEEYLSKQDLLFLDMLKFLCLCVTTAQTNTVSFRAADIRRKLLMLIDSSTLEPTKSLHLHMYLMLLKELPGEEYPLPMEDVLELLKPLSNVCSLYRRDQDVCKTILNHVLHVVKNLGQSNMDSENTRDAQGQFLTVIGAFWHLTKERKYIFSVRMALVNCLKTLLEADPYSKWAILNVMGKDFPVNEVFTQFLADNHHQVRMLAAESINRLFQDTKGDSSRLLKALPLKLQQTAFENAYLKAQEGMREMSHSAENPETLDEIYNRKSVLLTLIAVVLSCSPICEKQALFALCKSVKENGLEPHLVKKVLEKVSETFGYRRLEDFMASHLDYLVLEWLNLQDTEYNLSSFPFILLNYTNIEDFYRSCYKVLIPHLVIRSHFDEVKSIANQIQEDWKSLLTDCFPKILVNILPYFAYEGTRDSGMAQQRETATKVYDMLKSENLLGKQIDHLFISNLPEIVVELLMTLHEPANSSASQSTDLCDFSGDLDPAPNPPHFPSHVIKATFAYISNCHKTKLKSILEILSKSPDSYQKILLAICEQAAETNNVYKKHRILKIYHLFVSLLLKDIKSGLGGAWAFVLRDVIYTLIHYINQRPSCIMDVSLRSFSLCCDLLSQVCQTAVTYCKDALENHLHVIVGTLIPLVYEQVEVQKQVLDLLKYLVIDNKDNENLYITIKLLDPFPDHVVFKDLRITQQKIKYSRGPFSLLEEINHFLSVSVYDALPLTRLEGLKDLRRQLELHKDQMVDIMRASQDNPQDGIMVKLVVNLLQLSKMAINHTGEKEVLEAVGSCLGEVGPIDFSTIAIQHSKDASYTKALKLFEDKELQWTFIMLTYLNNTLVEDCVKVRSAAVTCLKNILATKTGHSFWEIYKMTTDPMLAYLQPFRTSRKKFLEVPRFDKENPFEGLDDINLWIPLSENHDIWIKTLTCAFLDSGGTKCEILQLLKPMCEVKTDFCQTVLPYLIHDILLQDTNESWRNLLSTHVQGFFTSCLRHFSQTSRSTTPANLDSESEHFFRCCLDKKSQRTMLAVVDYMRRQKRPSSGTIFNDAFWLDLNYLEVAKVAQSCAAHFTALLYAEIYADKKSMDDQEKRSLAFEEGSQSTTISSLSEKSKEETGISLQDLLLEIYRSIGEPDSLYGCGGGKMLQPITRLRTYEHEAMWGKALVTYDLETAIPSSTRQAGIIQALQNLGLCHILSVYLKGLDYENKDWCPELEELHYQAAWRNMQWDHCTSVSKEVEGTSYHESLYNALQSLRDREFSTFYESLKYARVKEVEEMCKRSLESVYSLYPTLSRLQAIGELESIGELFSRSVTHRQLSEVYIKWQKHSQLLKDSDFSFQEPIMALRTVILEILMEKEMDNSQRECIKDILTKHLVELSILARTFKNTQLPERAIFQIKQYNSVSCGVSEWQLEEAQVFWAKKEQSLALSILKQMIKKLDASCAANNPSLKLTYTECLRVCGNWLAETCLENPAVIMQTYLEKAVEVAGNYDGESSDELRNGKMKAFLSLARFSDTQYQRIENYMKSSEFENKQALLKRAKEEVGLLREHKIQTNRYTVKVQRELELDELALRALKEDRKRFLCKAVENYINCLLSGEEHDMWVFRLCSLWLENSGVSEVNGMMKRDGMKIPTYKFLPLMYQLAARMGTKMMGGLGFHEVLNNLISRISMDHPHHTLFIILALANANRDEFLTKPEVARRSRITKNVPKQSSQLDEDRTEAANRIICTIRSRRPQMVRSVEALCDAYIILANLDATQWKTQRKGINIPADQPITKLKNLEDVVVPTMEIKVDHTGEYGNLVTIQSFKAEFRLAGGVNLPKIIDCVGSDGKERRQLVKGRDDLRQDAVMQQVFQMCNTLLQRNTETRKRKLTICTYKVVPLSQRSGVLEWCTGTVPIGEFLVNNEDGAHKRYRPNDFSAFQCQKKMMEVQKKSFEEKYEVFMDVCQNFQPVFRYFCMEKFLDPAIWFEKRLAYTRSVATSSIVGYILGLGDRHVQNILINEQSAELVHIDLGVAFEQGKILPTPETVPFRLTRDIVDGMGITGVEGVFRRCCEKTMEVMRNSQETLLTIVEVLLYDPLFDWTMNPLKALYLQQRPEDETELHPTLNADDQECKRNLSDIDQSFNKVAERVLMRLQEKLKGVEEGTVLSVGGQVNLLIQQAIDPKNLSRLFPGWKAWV

[7] = molecular target: BDNF/NT-3 growth factors receptor (Homo sapiens) (UniProt Q16620); assay: Selectivity interaction (ProQinase) EUB0000171b NTRK2
Chain of BDNF/NT-3 growth factors receptor (Homo sapiens) (Q16620 32-822 limits assumed): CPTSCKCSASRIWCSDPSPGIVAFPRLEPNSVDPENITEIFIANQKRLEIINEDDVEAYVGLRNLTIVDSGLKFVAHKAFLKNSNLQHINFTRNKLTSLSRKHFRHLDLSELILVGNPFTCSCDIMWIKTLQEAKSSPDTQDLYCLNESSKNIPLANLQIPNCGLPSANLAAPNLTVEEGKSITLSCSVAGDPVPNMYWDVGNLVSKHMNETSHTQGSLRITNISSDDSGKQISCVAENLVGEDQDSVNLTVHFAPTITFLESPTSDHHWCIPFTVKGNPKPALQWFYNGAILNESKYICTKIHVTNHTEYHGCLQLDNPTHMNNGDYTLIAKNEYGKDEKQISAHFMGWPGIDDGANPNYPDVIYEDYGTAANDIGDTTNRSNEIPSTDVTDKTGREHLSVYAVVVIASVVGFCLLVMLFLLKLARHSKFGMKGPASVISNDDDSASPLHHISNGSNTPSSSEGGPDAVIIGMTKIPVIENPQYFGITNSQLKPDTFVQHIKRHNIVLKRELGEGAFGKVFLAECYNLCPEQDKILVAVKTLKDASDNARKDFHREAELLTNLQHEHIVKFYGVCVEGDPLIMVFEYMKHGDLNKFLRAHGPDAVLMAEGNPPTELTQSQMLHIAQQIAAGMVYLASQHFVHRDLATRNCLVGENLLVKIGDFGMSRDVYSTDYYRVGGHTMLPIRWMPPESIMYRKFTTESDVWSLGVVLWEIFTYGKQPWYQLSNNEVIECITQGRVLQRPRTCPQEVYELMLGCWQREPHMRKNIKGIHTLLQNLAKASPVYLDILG

[8] = molecular target: Tau-tubulin kinase 2 (Homo sapiens) (UniProt Q6IQ55); assay: Selectivity interaction (ProQinase) EUB0000171b TTBK2
Chain of Tau-tubulin kinase 2 (Homo sapiens) (Q6IQ55 whole entry): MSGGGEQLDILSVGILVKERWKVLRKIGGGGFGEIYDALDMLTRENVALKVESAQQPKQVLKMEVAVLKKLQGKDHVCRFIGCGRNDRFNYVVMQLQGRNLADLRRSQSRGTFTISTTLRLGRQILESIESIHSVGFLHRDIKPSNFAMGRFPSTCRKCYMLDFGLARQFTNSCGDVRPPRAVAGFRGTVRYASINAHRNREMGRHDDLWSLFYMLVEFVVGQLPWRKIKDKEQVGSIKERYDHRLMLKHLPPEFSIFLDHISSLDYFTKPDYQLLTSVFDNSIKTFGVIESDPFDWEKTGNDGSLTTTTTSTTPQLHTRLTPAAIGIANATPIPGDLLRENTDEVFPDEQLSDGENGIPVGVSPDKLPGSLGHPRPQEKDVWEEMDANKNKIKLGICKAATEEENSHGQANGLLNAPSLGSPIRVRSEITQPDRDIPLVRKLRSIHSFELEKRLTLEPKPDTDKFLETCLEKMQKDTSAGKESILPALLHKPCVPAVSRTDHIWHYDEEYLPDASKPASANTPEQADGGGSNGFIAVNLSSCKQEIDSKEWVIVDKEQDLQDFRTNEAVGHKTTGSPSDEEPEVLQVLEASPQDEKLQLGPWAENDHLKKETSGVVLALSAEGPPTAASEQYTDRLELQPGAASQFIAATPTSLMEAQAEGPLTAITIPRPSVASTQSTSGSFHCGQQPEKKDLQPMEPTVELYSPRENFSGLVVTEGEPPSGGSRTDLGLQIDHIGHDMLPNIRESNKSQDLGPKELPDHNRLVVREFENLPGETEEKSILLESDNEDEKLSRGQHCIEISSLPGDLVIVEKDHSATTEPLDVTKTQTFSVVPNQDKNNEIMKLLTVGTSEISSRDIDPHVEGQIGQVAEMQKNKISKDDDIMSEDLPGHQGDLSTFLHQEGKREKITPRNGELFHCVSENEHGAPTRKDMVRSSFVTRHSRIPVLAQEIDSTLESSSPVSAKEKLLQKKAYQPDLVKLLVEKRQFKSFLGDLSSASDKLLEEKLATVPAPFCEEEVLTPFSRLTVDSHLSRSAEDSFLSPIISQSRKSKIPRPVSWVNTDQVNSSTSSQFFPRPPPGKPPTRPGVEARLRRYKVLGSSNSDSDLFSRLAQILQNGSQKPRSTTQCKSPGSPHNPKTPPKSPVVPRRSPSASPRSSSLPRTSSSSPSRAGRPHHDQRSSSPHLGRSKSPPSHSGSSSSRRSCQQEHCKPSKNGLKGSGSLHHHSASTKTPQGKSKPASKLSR

[9] = molecular target: Mitogen-activated protein kinase kinase kinase kinase 4 (Homo sapiens, UniProt O95819); assay: Selectivity interaction (KinomeScan (DiscoverX)) EUB0000695a MAP4K4; conditions: at 100 nM
[10] = molecular target: Ribosomal protein S6 kinase alpha-6 (Homo sapiens, UniProt Q9UK32); assay: Selectivity interaction (KinomeScan (DiscoverX)) EUB0000695a RPS6KA6; conditions: at 100 nM
[11] = molecular target: Homeodomain-interacting protein kinase 1 (Homo sapiens, UniProt Q86Z02); assay: Selectivity interaction (KinomeScan (DiscoverX)) EUB0000595a HIPK1; conditions: at 10 µM
[12] = molecular target: Protein kinase C beta type (Homo sapiens, UniProt P05771); assay: Selectivity interaction (Millipore kinase profiler) EUB0000124b PRKCB; conditions: at 10 µM
[13] = molecular target: Phosphatidylinositol 4-phosphate 5-kinase type-1 gamma (Homo sapiens) (UniProt O60331); assay: Selectivity interaction (KinomeScan (DiscoverX)) EUB0000045b PIP5K1C
[14] = molecular target: Vascular endothelial growth factor receptor 1 (Homo sapiens) (UniProt P17948); assay: Selectivity interaction (KinomeScan (DiscoverX)) EUB0000092b FLT1; conditions: at 10 µM
[15] = molecular target: Cyclin-dependent kinase 3 (Homo sapiens) (UniProt Q00526); assay: Selectivity interaction (KinomeScan (DiscoverX)) EUB0000092b CDK3; conditions: at 10 µM
[16] = molecular target: T3, Inhibitor of nuclear factor kappa-B kinase subunit epsilon (Homo sapiens) (UniProt Q14164); assay: Selectivity interaction (ActivX KiNativ screen (ex vivo kinase selectivity in human PBMCs)) EUB0001619a IKBKE; format: cell-based; conditions: PBMC, at 1 µM
T3 sequence (whole entry): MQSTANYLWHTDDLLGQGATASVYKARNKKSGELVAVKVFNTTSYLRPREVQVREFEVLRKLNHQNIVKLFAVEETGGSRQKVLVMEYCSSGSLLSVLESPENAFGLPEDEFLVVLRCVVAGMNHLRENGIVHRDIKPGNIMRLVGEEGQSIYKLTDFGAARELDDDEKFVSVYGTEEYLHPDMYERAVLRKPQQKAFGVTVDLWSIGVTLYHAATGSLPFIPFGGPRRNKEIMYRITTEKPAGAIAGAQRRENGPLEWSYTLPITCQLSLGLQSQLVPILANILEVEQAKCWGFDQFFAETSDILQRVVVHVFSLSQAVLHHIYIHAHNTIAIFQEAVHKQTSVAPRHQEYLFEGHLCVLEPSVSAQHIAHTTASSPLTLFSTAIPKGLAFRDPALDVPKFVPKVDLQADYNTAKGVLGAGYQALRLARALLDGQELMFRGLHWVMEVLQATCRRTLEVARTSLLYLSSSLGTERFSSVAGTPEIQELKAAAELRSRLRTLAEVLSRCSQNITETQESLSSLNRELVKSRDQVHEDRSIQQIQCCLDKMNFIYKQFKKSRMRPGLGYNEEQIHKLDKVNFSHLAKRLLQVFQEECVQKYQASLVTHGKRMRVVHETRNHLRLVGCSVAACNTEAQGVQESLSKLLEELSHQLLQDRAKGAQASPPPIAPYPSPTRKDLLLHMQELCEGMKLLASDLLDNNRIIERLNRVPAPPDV

## Cn1cc(-n2cnc3c(NCc4nc5cc(Cl)c(Cl)cc5[nH]4)nc(N4CCOCC4)nc32)cn1
[1]
  % of control: 10.7%

## O=C(NOC[C@H](O)CO)c1ccc(F)c(F)c1Nc1ccc(I)cc1F
[2]
  % of control: 100%

## CNC(=O)Nc1ccc(-c2nc(N3CC4CCC(C3)O4)c3cnn(C4CCC5(CC4)OCCO5)c3n2)cc1
[3]
  % of control: 46%

## Cc1ccc(-c2ccc3c(ccc4sc5c(c43)NC[C@@H](C)NC5=O)n2)cn1
[4]
  % of inhibition: -5%

## CC[C@@H]1[C@H](F)C(=O)N[C@@H]1COc1nccc2cc(C(N)=O)c(OC)cc12 [ZIMLOVISERTIB]
[5]
  % of inhibition: -10.7%
[6]; at 0.01 µM
  % of inhibition: 12.7%
[6]; at 0.04 µM
  % of inhibition: -2.1%
[6]; at 0.2 µM
  % of inhibition: -2.2%
[6]; at 1 µM
  % of inhibition: -15.7%
[6]; at 5 µM
  % of inhibition: 24%

## C=CC(=O)Nc1cccc(C(=O)Nc2ccc(Nc3cc(-c4[nH]c(SC)nc4C)ccn3)cc2)c1
[7]; at 1 µM
  % of control: 89%
[7]; at 5 µM
  % of control: 81%
[8]; at 1 µM
  % of control: 94%
[8]; at 5 µM
  % of control: 93%

## Cc1cc(F)c(C(=O)Nc2cccc(-c3nncn3C(C)C)n2)cc1-n1cnc(C2CC2)c1
[9]
  % of control: 100%
[10]
  % of control: 84%

## COCC(=O)NC/C=C/c1ccc2ncnc(Nc3ccc(Oc4ccc(C)nc4)c(C)c3)c2c1 [CP-724714]
[11]
  % of control: 88%

## CC(=O)Nc1cccc(-n2c(=O)n(C3CC3)c(=O)c3c(Nc4ccc(I)cc4F)n(C)c(=O)c(C)c32)c1
[12]
  % of control: 102%

## C=CC(=O)Nc1cc(-n2c(=O)ccc3cnc4ccc(-c5ccc(NS(C)(=O)=O)cc5)cc4c32)ccc1C
[13]; at 1 µM
  % of control: 89%
[13]; at 10 µM
  % of control: 29%

## CCC(=O)N1CCN(c2ccc(-n3c(=O)ccc4cnc5ccc(-c6cnc7ccccc7c6)cc5c43)cc2C(F)(F)F)CC1
[14]
  % of control: 79%
[15]
  % of control: 100%

## N#Cc1cccc(-c2c[nH]c3ncnc(N4CCOCC4)c23)c1
[16]
  % of inhibition: 19%

Reference: ChEMBL document CHEMBL5465560, “Selectivity Literature for EUbOPEN Chemogenomic Library” (2024)
